Laboratory results published in paper PMC8596125, “Self‐Stabilized Supramolecular Assemblies Constructed from PEGylated Dendritic Peptide Conjugate for Augmenting Tumor Retention and Therapy” (Advanced Science, 2021).
Values joined by “and” are separate entries in the source; they are usually repeats but may differ in a detail not shown here. Equal entries are not always repeated.

Columns and labels:
[1] = In vivo pharmacokinetics; parameters: species or system mouse; conditions: healthy BALB/c mice, single i.v. 5 mg Ppa kg-1, plasma fluorescence, two-compartment model, mean ± s.d., n = 7
Procedure: 1.3.13 In vivo pharmacokinetics
Healthy pathogen-free BALB/c mice (5-6 weeks, female) were used to determine the pharmacokinetics of SSAs (n = 7). The mice were intravenously injected with Ppa and SSAs (5 mg Ppa kg-1), respectively. Blood (20 μL) was collected at diﬀerent time […]
Plasma was diluted to 50-fold with DMSO for fluorescent measurements using a BioTek plate reader. The pharmacokinetic parameters were calculated using a two-compartment model by WinNonlin 5.2 software. […]

[2] = tested on: 4T1 cells; assay: Cytotoxicity, CCK-8 assay, 4T1; format: cell-based, mouse
Procedure: (§1) The CCK-8 assay was used to examine the photodynamic therapeutic effect of SSAs on cell viability against three cell lines. 4×103 4T1 cells per well were seeded in a 96-well plate, and then incubated overnight. The cells were treated with different concentrations of Ppa and SSAs at an equivalent Ppa dose. After 24 h incubation, the medium was replaced with fresh one, and the wells were irradiated using a 660 nm laser with 1 J cm−2. After 24 h, the spent media was replaced and the cell viability was assessed using the CCK-8 reagent. The absorbance at […] of each well was recorded on a microplate reader. Untreated cells were served as a control. Results were presented as the average cell viability by following the manufacturer’s instruction. IC50 values were calculated by using nonlinear regression in software Graphpad Prism7. The cytotoxicity of SSAs and Ppa with or without laser against A549 cell line was also measured through the same procedure.
The cytotoxicity of SSAs and PDP without laser irradiation was also measured by […]

[3] = tested on: A549 cells; assay: Cytotoxicity, CCK-8 assay, A549; format: cell-based, human
Procedure: as §1, with “procedure. […]” for “procedure.”

[4] = tested on: A549 human non-small cell lung tumor; assay: In vivo photodynamic therapy, A549 xenograft model; parameters: species or system mouse; conditions: nude mice with A549 tumors, i.v. 5 mg Ppa kg-1 on day 1, 14, 21, 28, 660 nm 200 mW cm-2 8 min, n = 5
Procedure: and stained by the terminal deoxynucleotidyl transferase dUTP nick end labeling (TUNEL) and CD31 for histology studies.
For studies with an A549 human non-small cell lung tumor model, nude mice were randomly allocated into three groups (n= 5): saline (control), Ppa, and SSAs when the average tumor volume reached 50 mm3. Saline, Ppa, and SSAs (5 mg Ppa kg-1) were injected intravenously on day 1, 14, 21 and 28. At 3 d post injection, the tumors from groups Ppa, and SSAs were irradiated with a 660 nm laser (200 mW cm-2, 8 min). The tumor growth was monitored and the tumor size was measured every 3 d. The mice were sacrificed on day 61 after treatment.
1.3.16 RNA-seq and enriched signaling pathways analysis
4T1 cells (106/culture) were treated by SSAs and free Ppa with or without laser.
Untreated cells were set as a control. Total RNA was extracted (TRIzol Reagent, Thermo Fisher Scientific, USA) and rRNAs were removed by Ribo-zero™ rRNA Removal Kit (Epicentre, CA, USA). Relative abundance of transcripts was calculated with kallisto. The raw RNA-Seq count data were processed by DESeq R packages to obtain differentially expressed genes (DEGs).[4] […]
Enrichment analyses were performed according to the KEGG database. For gene set enrichment analysis (GSEA), all gene sets were analyzed against the curated gene sets […]

AUC (area under the drug concentration) [1]: 2600 ± 110 ng·h/mL | MRT (mean residence time) [1]: 3.64 ± 1.02 h | t1/2 (half-life of the drug) [1]: 4.29 ± 0.47 h and 4.29 h
Structure (SMILES): C=Cc1c(C)c2cc3nc(c4c5[nH]c(cc6nc(cc1[nH]2)C(C)=C6CC)c(C)c5C(=O)C4)[C@@H](CCC(=O)O)[C@@H]3C [Ppa, pyropheophorbide a]
Cytotoxicity with laser irradiation ([2]; 24 h incubation, 660 nm laser, CCK-8, n = 3): notable cytotoxicity | Concentration above which very cytotoxic without irradiation ([2]; no light, CCK-8): higher than 1 µg mL^−1 | Cytotoxicity without laser irradiation [3]: much higher cytotoxicity | Cytotoxicity under laser irradiation ([3]; 660 nm laser): strong cytotoxicity | Tumor growth [4]: modest tumor growth suppression
